According to patent publication US20250255847A1, “[…]s: Novel Drugs for Triple Negative Breast Cancer” (SIMMARON RSEARCH INC, priority 2024, published 2025):

Assays:
RANTES = RANTES real-time PCR and ELISA in MDA-MB-468 cells; type: cell-based, human; conditions: 20 nM; for gene expression of RANTES (real-time PCR): 5 hrs post-treatment; for protein expression of RANTES (ELISA): 48 hrs post treatment
Experimental: FIG. 10 illustrates an embodiment of the present invention and illustrates SIM-1 and SIM-2 inhibit expressions of IL6, RANTES, and other STAT3-dependent tumor promoting genes and proteins. (A) A gene array of STAT3 dependent 66 genes (listed in Table 1) was performed in mRNA samples of MDA-MB-468 cells. Realtime PCR plate coated with 66 primer sets of STAT3-dependent genes was run for four conditions including control, EGF (25 ng/mL), EGF+SIM-1 (10 nM) and EGF+SIM-2 (10 nM). The resultant Ct value was normalized with four different housekeeping genes, and then summarized with a heatmap analyses drawn in Morpheus server of Broad Institute. […] (C) The cloning of STAT3 response element of IL6 promoter upstream of GFP reporter was performed by GeneCopoea genome editing service (Rockville, MD). The bit score map and sequence of consensus STAT3 response element or SEQ ID NO: 2 was shown below. EGFP reporter assay was performed in EGF-induced (20 ng/mL) MDA-MB-468 after treatments of increasing doses of (D) SIM-1 and (E) SIM-2 for 5 hrs. Briefly, MDA-MB-468 cells were transfected with the plasmid for 24 hrs using Lipofectamine transfection strategy followed by the treatment with EGF (20 ng/mL) alone and together with increasing doses SIM-1 and SIM-2 for additional 5 hrs. After that live cells were recorded at Ex:Em=485/535 nm wavelength for GFP activity. (F) The scrambled STAT3 response element in IL6 promoter or SEQ ID NO: 3 was also synthesized partnering with GeneCopoea. One-way ANOVA (treatment as effector) was adopted to test the significance between groups at **p<0.01, #p<0.005, and *p<0.05. (G) The GFP reporter activity was measured where the scrambled gene was cloned upstream of eGFP reporter. Results are mean±SD of three different experiments Ns=no significance. (H) Realtime PCR analyses of IL6 was performed in MDA-MB-468 cells maintained under control, EGF (25 ng/mL), EGF+SIM-1(20 nM), and EGF+SIM-2 (20 nM) conditions for 5 hrs. (I) ELISA analysis of IL6 was performed after 48 hrs in MDA-MB-468 cells kept under similar treatment conditions. (J) Realtime PCR (5 hrs post-treatment) and (K) ELISA analyses of RANTES (48 hrs post treatment) were performed under similar condition. Results are mean±SD of three different experiments. One-way ANOVA (treatment as effector) was adopted to test the significance between groups at ***p<0.001, **p<0.01, and *p<0.05.
ELISA assay. IL6 (BD OptEIA™; Cat #555220) and RANTES (Thermo; Cat #EHRNTS) ELISA was performed as per manufacturer's protocol. […]
Once the transcriptional regulation of STAT3-dependent genes was confirmed, the quantification of IL6 was performed. […]

[1] = Solubility in aqueous solvent; type: physicochemical

Structure (SMILES)	gene expression of RANTES (real-time PCR) (RANTES)	protein expression of RANTES (ELISA) (RANTES)	solubility in aqueous solvent [1]
O=C(O)CCC(=O)NCc1csc2ccc(Cl)cc12 [SIM-1, 4-[(5-chloro-1-benzothiophen-3-yl)methylamino]-4-oxobutanoic acid]	significantly downregulated	significantly downregulated	partly soluble to insoluble
CCOC(=O)c1c(NC(C)=O)sc2c(Cl)c(/C=N/O)ccc12 [SIM-2, ethyl 2-acetamido-7-chloro-6-(hydroxyiminomethyl)-1-benzothiophene-3-carboxylate]	significantly downregulated	significantly downregulated	partly soluble to insoluble
